# Measurements from patent US6479435B1, “Diaryl ethers and processes for their preparation and herbicidal and desiccant compositions containing them” (ISK Americas Incorporated, priority 1997, dated 2002).
# Tests used:
# Type in all cases: in vivo
# [1] = tested on: barnyardgrass (Echinochloa crusgalli, ECHCG); assay: Pre-emerge greenhouse herbicide test, phytotoxicity rating; conditions: Echinochloa crus-galli, pre-emergence, 336 h, 14 days after application, rating scale 0-100; for pest or weed control at 125 g/ha: Rate 125 g al/ha; for pest or weed control at 500 g/ha: Rate 500 g al/ha
# Procedure, shortened: (§1)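 Visual 0–100 injury rating (100 = all plants dead) taken 14 days after treatment. Rates of 125–1000 g ai/ha in acetone, 187 l/ha, were sprayed onto soil one day post-sowing; pots were surface-watered to incorporate, then bottom-watered.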
# [2] = tested on: redroot pigweed (Amaranthus retroflexus, AMARE); assay: as above; conditions: Amaranthus retroflexus, pre-emergence, 336 h, 14 days after application, rating scale 0-100; for pest or weed control at 125 g/ha: Rate 125 g al/ha; for pest or weed control at 500 g/ha: Rate 500 g al/ha
# Procedure, shortened: as §1
# [3] = tested on: green foxtail (Setaria viridis, SETVI); assay: as above; conditions: Setaria viridis, pre-emergence, 336 h, 14 days after application, rating scale 0-100; for pest or weed control at 125 g/ha: Rate 125 g al/ha; for pest or weed control at 500 g/ha: Rate 500 g al/ha
# Procedure, shortened: as §1
# [4] = tested on: large crabgrass (Digitaria sanguinalis, DIGSA); assay: as above; conditions: Digitaria sanguinalis, pre-emergence, 336 h, 14 days after application, rating scale 0-100; for pest or weed control at 125 g/ha: Rate 125 g al/ha; for pest or weed control at 500 g/ha: Rate 500 g al/ha
# Procedure, shortened: as §1
# [5] = tested on: velvetleaf (Abutilon theophrasti, ABUTH); assay: as above; conditions: Abutilon theophrasti, pre-emergence, 336 h, 14 days after application, rating scale 0-100; for pest or weed control at 125 g/ha: Rate 125 g al/ha; for pest or weed control at 500 g/ha: Rate 500 g al/ha
# Procedure, shortened: as §1
# [6] = tested on: sicklepod (Cassia obtusifolia, CASOB); assay: as above; conditions: Senna obtusifolia, pre-emergence, 336 h, 14 days after application, rating scale 0-100; for pest or weed control at 125 g/ha: Rate 125 g al/ha; for pest or weed control at 500 g/ha: Rate 500 g al/ha
# Procedure, shortened: as §1
# [7] = tested on: Johnsongrass (Sorghum halepense, SORHA); assay: as above; conditions: Sorghum halepense, pre-emergence, 336 h, 14 days after application, rating scale 0-100; for pest or weed control at 125 g/ha: Rate 125 g al/ha; for pest or weed control at 500 g/ha: Rate 500 g al/ha
# Procedure, shortened: as §1
# [8] = tested on: lambsquarters (Chenopodium album, CHEAL); assay: as above; conditions: Chenopodium album, pre-emergence, 336 h, 14 days after application, rating scale 0-100; for pest or weed control at 125 g/ha: Rate 125 g al/ha; for pest or weed control at 500 g/ha: Rate 500 g al/ha
# Procedure, shortened: as §1
# [9] = tested on: ivyleaf morningglory (Ipomoea hederacea, IPOHE); assay: as above; conditions: Ipomoea, pre-emergence, 336 h, 14 days after application, rating scale 0-100; for pest or weed control at 125 g/ha: Rate 125 g al/ha; for pest or weed control at 500 g/ha: Rate 500 g al/ha
# Procedure, shortened: as §1
# [10] = tested on: redroot pigweed (Amaranthus retroflexus, AMARE); assay: Post-emerge greenhouse herbicide test, phytotoxicity rating; conditions: Amaranthus retroflexus, post-emergence, 336 h, 14 days after application, scale 0-100; for pest or weed control at 63 g/ha: rate 63 g ai/ha; for pest or weed control at 500 g/ha: rate 500 g ai/ha
# Procedure, shortened: (§2)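 Scores use a 0 (no damage) to 100 (complete kill) scale, taken 14 days after a foliar spray. Acetone solutions with 0.25% v/v non-ionic surfactant were applied by track sprayer at 187 l/ha and 63-1000 g ai/ha to bottom-watered 2-3 leaf plants.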
# [11] = tested on: green foxtail (Setaria viridis, SETVI); assay: as above; conditions: Setaria viridis, post-emergence, 336 h, 14 days after application, scale 0-100; for pest or weed control at 63 g/ha: rate 63 g ai/ha; for pest or weed control at 500 g/ha: rate 500 g ai/ha
# Procedure, shortened: as §2
# [12] = tested on: large crabgrass (Digitaria sanguinalis, DIGSA); assay: as above; conditions: Digitaria sanguinalis, post-emergence, 336 h, 14 days after application, scale 0-100; for pest or weed control at 63 g/ha: rate 63 g ai/ha; for pest or weed control at 500 g/ha: rate 500 g ai/ha
# Procedure, shortened: as §2
# [13] = tested on: sicklepod (Cassia obtusifolia, CASOB); assay: as above; conditions: Senna obtusifolia, post-emergence, 336 h, 14 days after application, scale 0-100; for pest or weed control at 63 g/ha: rate 63 g ai/ha; for pest or weed control at 500 g/ha: rate 500 g ai/ha
# Procedure, shortened: as §2
# [14] = tested on: lambsquarters (Chenopodium album, CHEAL); assay: as above; conditions: Chenopodium album, post-emergence, 336 h, 14 days after application, scale 0-100; for pest or weed control at 63 g/ha: rate 63 g ai/ha; for pest or weed control at 500 g/ha: rate 500 g ai/ha
# Procedure, shortened: as §2
# [15] = tested on: ivyleaf morningglory (Ipomoea hederacea, IPOHE); assay: as above; conditions: Ipomoea, post-emergence, 336 h, 14 days after application, scale 0-100; for pest or weed control at 63 g/ha: rate 63 g ai/ha; for pest or weed control at 500 g/ha: rate 500 g ai/ha
# Procedure, shortened: as §2
Structure (SMILES),pest or weed control at 125 g/ha [1] [%],pest or weed control at 500 g/ha [1] [%],pest or weed control at 125 g/ha [2] [%],pest or weed control at 500 g/ha [2] [%],pest or weed control at 125 g/ha [3] [%],pest or weed control at 500 g/ha [3] [%],pest or weed control at 125 g/ha [4] [%],pest or weed control at 500 g/ha [4] [%],pest or weed control at 125 g/ha [5] [%],pest or weed control at 500 g/ha [5] [%],pest or weed control at 125 g/ha [6] [%],pest or weed control at 500 g/ha [6] [%],pest or weed control at 125 g/ha [7] [%],pest or weed control at 500 g/ha [7] [%],pest or weed control at 125 g/ha [8] [%],pest or weed control at 500 g/ha [8] [%],pest or weed control at 125 g/ha [9] [%],pest or weed control at 500 g/ha [9] [%],pest or weed control at 500 g/ha [10] [%],pest or weed control at 500 g/ha [11] [%],also measured
"Nn1c(C(F)(F)F)cc(=O)n(-c2cc(Oc3ccc(Br)cn3)c(Cl)cc2F)c1=O [Compound 9-2, 1-Amino-3-[4-chloro-2-fluoro-5-(5-bromo-2-pyridyloxy)phenyl]-6-trifluoromethyl-1,2,3,4-tetrahydropyrimidine-2,4-dione]",20,95,80,100,80,100,95,100,30,100,0,50,60,90,100,100,0,100,100,60,pest or weed control at 63 g/ha [10]: 100%; pest or weed control at 63 g/ha [11]: 10%; pest or weed control at 63 g/ha [12]: 0%; pest or weed control at 500 g/ha [12]: 30%; pest or weed control at 63 g/ha [13]: 30%; pest or weed control at 500 g/ha [13]: 95%; pest or weed control at 63 g/ha [14]: 100%; pest or weed control at 500 g/ha [14]: 95%; pest or weed control at 63 g/ha [15]: 100%; pest or weed control at 500 g/ha [15]: 80%
"Nn1c(C(F)(F)F)cc(=O)n(-c2cc(Oc3ccccn3)c(Cl)cc2F)c1=O [Compound 9-15, 1-amino-3-[4-chloro-2-fluoro-5-(2pyridyloxy)phenyl]-6-trifluoromethyl-1,2,3,4-tetrahydropyrimidine-2,4-dione]",100,100,100,100,100,100,100,10,100,100,95,100,100,100,100,100,100,100,100,100,pest or weed control at 125 g/ha ([10]; rate 125 g ai/ha): 100%; pest or weed control at 125 g/ha ([11]; rate 125 g ai/ha): 95%; pest or weed control at 125 g/ha ([12]; rate 125 g ai/ha): 90%; pest or weed control at 500 g/ha [12]: 100%; pest or weed control at 125 g/ha ([13]; rate 125 g ai/ha): 100%; pest or weed control at 500 g/ha [13]: 100%; pest or weed control at 125 g/ha ([14]; rate 125 g ai/ha): 100%; pest or weed control at 500 g/ha [14]: 100%; pest or weed control at 125 g/ha ([15]; rate 125 g ai/ha): 100%; pest or weed control at 500 g/ha [15]: 100%
"Nn1c(C(F)(F)F)cc(=O)n(-c2cc(Oc3ccc([N+](=O)[O-])cn3)c(Cl)cc2F)c1=O [Compound 9-11, 1-Amino-3-[4-chloro-2-fluoro-5-(5-nitro-2-pyridyloxy)phenyl]-6-trifluoromethyl-1,2,3,4-tetrahydropyrimidine-2,4-dione]",10,80,100,100,70,100,30,95,100,100,10,20,20,90,100,100,10,100,100,40,pest or weed control at 63 g/ha [10]: 100%; pest or weed control at 63 g/ha [11]: 20%; pest or weed control at 63 g/ha [12]: 40%; pest or weed control at 500 g/ha [12]: 80%; pest or weed control at 63 g/ha [13]: 30%; pest or weed control at 500 g/ha [13]: 80%; pest or weed control at 63 g/ha [14]: 80%; pest or weed control at 500 g/ha [14]: 100%; pest or weed control at 63 g/ha [15]: 100%; pest or weed control at 500 g/ha [15]: 100%
